The values below come from PubChem BioAssay (NCI).

Some test systems named below: SK-OV-3 ovarian; MDA-MB-231 breast; SF-539 CNS; IGROV1 ovarian; EKVX NSCLC; MDA-MB-435; A549 NSCLC; HL-60(TB) leukemia; TK-10 renal; SK-MEL-2 melanoma.
Assay in all cases: NCI anticancer screen, dose series, 48 h

SMILES strings stand for the structures. Values joined by “and” are separate entries in the source; they are usually repeats but may differ in a detail not shown here. Equal entries are not always repeated.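 Where inhibition never reached the appropriate level, the endpoint shown equals the highest concentration tested. Otherwise, values were interpolated linearly from a five-concentration, 48-hour dose response in 96-well plates. Abbreviation: GI50, concentration required for 50% inhibition of growth. At the TGI there is no net growth.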 Bounds are passed on as bounds.

In the case of `Cc1ccc(/C=C(/C#N)n2nnc3ncccc32)cc1`, the GI50 in the assay on SK-OV-3 ovarian is 3.9 µM; in the assay on MDA-MB-231 breast, 2.41 µM; in the assay with SF-539 CNS, 2.47 µM; in the assay with IGROV1 ovarian it was 2.28 µM; in the assay with EKVX NSCLC it was 2.88 µM; in the assay with MDA-MB-435, 0.378 µM. Also, the GI50 was 2.58 µM with A549 NSCLC, 2.99 µM in the assay with HL-60(TB) leukemia, 2.39 µM with TK-10 renal and 2.47 µM in the assay with SK-MEL-2 melanoma. Also, the TGI was more than 100 µM in the assay on SK-OV-3 ovarian; 8.44 µM in the assay with MDA-MB-231 breast; 9.61 µM in the assay with SF-539 CNS; 21.5 µM in the assay with IGROV1 ovarian; 26.9 µM with EKVX NSCLC; 13.4 µM in the assay with MDA-MB-435. The TGI was determined as 77.5 µM in the assay with A549 NSCLC, 9.92 µM in the assay with HL-60(TB) leukemia, 9.22 µM in the assay with TK-10 renal and 8.66 µM in the assay on SK-MEL-2 melanoma.

As to `COC(=O)CC1C2(C)C3=C(C)C(c4ccoc4)CC3OC2C2OC(=O)C3(C)C=CC(=O)C1(C)C23` (centres undefined), the TGI in the assay on SK-OV-3 ovarian came to 14.9 µM; in the assay with MDA-MB-231 breast, 2.81 µM; in the assay with SF-539 CNS it was 3.03 µM; in the assay on IGROV1 ovarian, 3.29 µM; with EKVX NSCLC, 3.89 µM; with MDA-MB-435, 2.69 µM. Also, the TGI was 11.4 µM in the assay with A549 NSCLC, 2.76 µM with HL-60(TB) leukemia, 5.94 µM in the assay on TK-10 renal and 3.58 µM with SK-MEL-2 melanoma.

Turning to `Cc1ccc(S(=O)(=O)OCC(=O)Nc2ccc(C(=O)O)c(O)c2)cc1`, the GI50 in the assay on SK-OV-3 ovarian is 49.5 µM; with MDA-MB-231 breast it was 25.9 µM; with SF-539 CNS, 24.7 µM; in the assay with IGROV1 ovarian it was 18 µM; in the assay with EKVX NSCLC it was 165 µM; in the assay on MDA-MB-435, 39.9 µM. Moreover, the GI50 is 199 µM in the assay on A549 NSCLC, 26.1 µM in the assay with HL-60(TB) leukemia, 207 µM with TK-10 renal and 50.2 µM with SK-MEL-2 melanoma. In addition, the TGI in the assay with SK-OV-3 ovarian came to 188 µM; in the assay with MDA-MB-231 breast, 99.6 µM; with SF-539 CNS, 72.2 µM; in the assay with IGROV1 ovarian, 92.3 µM; in the assay on EKVX NSCLC it was 332 µM; in the assay with MDA-MB-435 it was 169 µM. Besides, the TGI in the assay on A549 NSCLC was found to be 503 µM; in the assay with HL-60(TB) leukemia it was 193 µM; in the assay with TK-10 renal, 464 µM; with SK-MEL-2 melanoma it was 203 µM.

In the case of `CCNC(=O)Oc1ccc(/C(=C(\C)c2ccc(Cl)cc2)c2ccc(OCCN(CC)CC)cc2)cc1`, the GI50 is 10.7 µM in the assay with SK-OV-3 ovarian; 3.02 µM with MDA-MB-231 breast; 1.78 µM with SF-539 CNS; 3.66 µM in the assay on IGROV1 ovarian; 10.3 µM in the assay with EKVX NSCLC; 3.44 µM with MDA-MB-435. The GI50 in the assay with A549 NSCLC is 5.63 µM; in the assay with HL-60(TB) leukemia, 1.79 µM; in the assay on TK-10 renal it was 17 µM; in the assay on SK-MEL-2 melanoma, 5.01 µM. In addition, the TGI in the assay on SK-OV-3 ovarian came to 22.8 µM; in the assay on MDA-MB-231 breast, 8.17 µM; in the assay with SF-539 CNS, 3.44 µM; with IGROV1 ovarian, 15.3 µM; in the assay on EKVX NSCLC, 23.6 µM; in the assay with MDA-MB-435, 12.8 µM. In addition, the TGI stood at 18.4 µM in the assay with A549 NSCLC, 4.37 µM in the assay with HL-60(TB) leukemia, 31.8 µM in the assay with TK-10 renal and 17.6 µM in the assay with SK-MEL-2 melanoma.

Turning to `C=C1C[C@@H](O)[C@@H](Br)C(C)(C)[C@]12CCC(C)(Br)C(Cl)C2` (some centres undefined), the GI50 in the assay on SK-OV-3 ovarian is 24 µM; with MDA-MB-231 breast it was 16.8 µM; in the assay with SF-539 CNS it was 16.9 µM; in the assay on IGROV1 ovarian, 18 µM; in the assay on EKVX NSCLC, 2.54 µM; with MDA-MB-435 it was 18 µM. In addition, the GI50 in the assay on A549 NSCLC is 16.7 µM; in the assay with TK-10 renal, 15.7 µM; in the assay with SK-MEL-2 melanoma it was 16.5 µM. Also, the TGI is > 50 µM and 64.6 µM in the assay on SK-OV-3 ovarian; > 50 µM and 31.5 µM in the assay on MDA-MB-231 breast; > 50 µM and 31.2 µM in the assay with SF-539 CNS; > 50 µM and 36.1 µM in the assay with IGROV1 ovarian; 50 µM and 15.2 µM with EKVX NSCLC; > 50 µM and 35.8 µM in the assay with MDA-MB-435. The TGI in the assay on A549 NSCLC is > 50 µM and 37.7 µM; in the assay with HL-60(TB) leukemia, 11.8 µM; in the assay with TK-10 renal, > 50 µM and 29.8 µM; with SK-MEL-2 melanoma, > 50 µM and 30.4 µM.
